Laboratory results from patent US7531193B2 (priority 2004, dated 2009).
Several values for one entry are separate records, joined by “and”; a condition that tells them apart may be missing. Equal values may be shown once.

Test system: human striated muscle cell innervation with spinal cord and spinal ganglion explants from rat embryos
Format: cell-based, human (muscle cells), rat (embryo explants)

C/C=C/C=C\CC/C=C/C(=O)NCC(C)C [Pure spilanthol, spilanthol]
Effect on muscle contractions (conclusion): lead to a blockage of muscle contractions | Frequency of contractions (%), incubation without washout, 5 min: 0% and 7% | Frequency of contractions (%), incubation without washout, 1 h: 0% | Frequency of contractions (%), incubation without washout, 6 h: 0% and 4% | Frequency of contractions (%), recuperation after washout, 1 h: 0% | Incubation time after which muscle contractions are blocked: 5 min | Recuperation of contractile activity (conclusion): not observed | Time the fibres remain blocked after elimination of the substance: 24 h | Time until which the blockage is maintained during incubation: 6 h
